In patent US20250381131A1, “COMPOSITION AND METHOD FOR INHIBITING ELASTASE ACTIVITY” (ACCESS BUSINESS GROUP INTERNATIONAL LLC, priority 2022, published 2025):
Values joined by “and” are separate entries in the source; they are usually repeats but may differ in a detail not shown here. Equal values may be shown once.

Biological target: Porcine pancreatic elastase (PPE) (Sus scrofa, UniProt P00772)
Test: Porcine pancreatic elastase (PPE) enzyme inhibitory assay
Format: biochemical
Details: for Average % inhibition: average of three; for Inhibition Rate (%): single determination
Experimental: The elastase inhibitory activity of certain plant extracts was evaluated in vitro using Porcine pancreatic elastase (PPE) enzyme inhibitory assay as described by Cannel et al. (1988) with some modifications. The assay was performed in 0.2 M Tris-HCL buffer (pH 8.0). Porcine pancreatic elastase was dissolved to make a 100 unit stock solution in sterile water. The substrate N-Succinyl-Ala-Ala-Ala-p-nitroanilide (AAAPVN) was dissolved in buffer. The plant extracts were incubated with the enzyme for 25 minutes before adding the substrate to begin the reaction. […] EGCG was used as a positive control, and tris-HCl was used as the blank.
Maximum Velocities (Vmax) were taken at a wavelength of 410 nm for 25 minutes at 30 second intervals. Percentage inhibitions were calculated by the following equation: […]
where Vmax(sample) is the velocity of the sample extracts and Vmax(control) is the velocity of the assay using the buffer instead of inhibitor (sample).

Porcine pancreatic elastase (PPE), sequence (P00772 27-266): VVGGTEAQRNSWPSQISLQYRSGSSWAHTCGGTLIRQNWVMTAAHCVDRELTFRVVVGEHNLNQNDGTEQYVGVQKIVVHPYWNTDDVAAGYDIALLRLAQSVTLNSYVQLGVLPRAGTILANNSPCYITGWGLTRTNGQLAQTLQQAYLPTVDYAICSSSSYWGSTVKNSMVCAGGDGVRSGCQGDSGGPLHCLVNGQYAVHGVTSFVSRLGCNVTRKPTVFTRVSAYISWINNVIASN

Q: What does the source list for `O=C(O[C@@H]1Cc2c(O)cc(O)cc2O[C@@H]1c1cc(O)c(O)c(O)c1)c1cc(O)c(O)c(O)c1` [EGCG, epigallocatechin gallate]?
A: Average % inhibition (31.25 μg/ml): 4.80%; Inhibition Rate (%) (31.25 μg/ml): 6.76% and 1.06% and 6.58%; Average % inhibition (62.5 μg/ml): 15.57%; Inhibition Rate (%) (62.5 μg/ml): 20.43% and 14.78% and 11.52%; Average % inhibition (125 μg/ml): 36.25%; Inhibition Rate (%) (125 μg/ml): 39.69% and 35.13% and 33.94%; Average % inhibition (250 μg/ml): 41.56%; Inhibition Rate (%) (250 μg/ml): 45.23% and 41.13% and 38.32%; Average % inhibition (500 μg/ml): 43.47%; Inhibition Rate (%) (500 μg/ml): 45.20% and 41.64% and 43.58%; Average % inhibition (1000 μg/ml): 48.97%; Inhibition Rate (%) (1000 μg/ml): 49.48% and 47.89% and 49.56%; Average % inhibition (2000 μg/ml): 52.78%; Inhibition Rate (%) (2000 μg/ml): 52.32% and 52.75% and 53.28%
